Experimental data taken from patent US4720543A, “1a-7-substituted derivatives of mitomycin and uses thereof” (priority 1985, dated 1988).

Key:
Klebsiella Pneumonia = experiment: antibiotic activity, bacterial growth inhibition in culture; format: cell-based
Experimental: (§1) Bacteria were grown in a standard growth culture at pH 7.2. After the cultures were incubated at 37° C. overnight and diluted into fresh medium, controls and the test antibiotics dissolved in 0.3% hydroxy propylcellulose (HPC) were added at various concentrations and then reincubated overnight. The measure of antibiotic activity was determined by the amount of bacterial growth inhibition as shown by measurement of the optical density at 660 nm.

Listeria Sp. = experiment: as above; format: cell-based
Experimental: as §1

Pseudomonas Sp. = experiment: as above; format: cell-based
Experimental: as §1

Staphylococcus Sp. = experiment: as above; format: cell-based
Experimental: as §1

W3100 (E. coli) = experiment: as above; format: cell-based
Experimental: as §1

WP2s (E. coli) = experiment: as above; format: cell-based
Experimental: as §1

P388 leukemia = experiment: murine P388 leukemia antitumor activity; format: in vivo; conditions: approximate LD10 dose (M-TAG 250 mg/kg; mitomycin C 4 mg/kg), day one
Experimental: The murine P388 leukemia system, maintained intraperitoneally in female DBA/2 mice, was used to evaluate antitumor activity.
The P388 antileukemic activity of the test compound (M-TAG) was assessed by mean survival days, percentage increased life span or %ILS, and number of survivors after 45 days. The %ILS was calculated as follows:
%ILS=(T-C)/C×100 where T is the mean survival days of the treated mice and C is the mean survival days of the untreated mice

Ehrlich ascites = experiment: murine Ehrlich ascites antitumor activity; format: in vivo
Experimental: The antitumor activity of M-TAG for the murine Ehrlich ascities tumor was also determined. Ehrlich ascites was maintained i.p. in female BALB/C mice. For antitumor studies, 1×10^7 Ehrlich ascites cells (in 0.10 ml) were implanted i.p. in male BD2F1 mice. Drug was administered i.p. (single LD10 dose) one day after tumor implantation.

[1] = tested on: peripheral leukocyte (WBC); experiment: effects on peripheral leukocyte (WBC) count; format: in vivo, mice
Experimental: Comparative studies were performed with M-TAG and mitomycin C. Drug was dissolved in absolute ethanol, and then adjusted to a final concentration of 8% ethanol-92% sterile water. Blood samples obtained were diluted in 9.98 ml of Isoton (a neutral isotonic buffer solution) and counted in a Coulter counter after lysis with Zapoglobin (an enzyme solution which lyses red blood cells but not white blood cells). WBC counts are expressed as a percentage of values from control mice receiving drug vehicle only.

in vitro = conditions: human, bone marrow cells
Experimental: The human bone marrow CFU-C assay measures human bone marrow cells committed to granulocyte-macrophage differentiation. This in vitro assay serves as a model for predicting the relative toxicity of an experimental drug on the granulocytic series of the bone marrow. […] Both drugs were dissolved in 0.5% DMSO, and nucleated human bone marrow cells were exposed in vitro (for 90 minutes at 37° C.) to varying concentrations of each drug. The cells were then plated in triplicate in 3% agar for the CFU-C assay, using GCT, (Giant Cell Tumor) extract (Gibco, Grand Island, N.Y.) as colony-stimulating factor.

bone marrow = conditions: mice, rats, cats, dogs, and rhesus monkeys; cited from earlier work
B16 melanoma = experiment: murine B16 melanoma antitumor activity; conditions: M-TAG 250 mg/kg or mitomycin C 4 mg/kg, i.p. day 1
Text: Activity against the murine B16 melanoma is currently being determined.

[2] = toxic single doses in normal CD2F1 mice
Experimental: Drug was administered intraperitoneally (i.p.) in a volume of 0.1 ml per 10 grams body weight.

[3] = Escherichia coli, 0.04 mcg/ml, 37° C. overnight, read-out: amount of bacterial growth inhibition (first figure)
[4] = Escherichia coli, 0.4 mcg/ml, 37° C. overnight, read-out: amount of bacterial growth inhibition (first figure)
[5] = Escherichia coli, 4.0 mcg/ml, 37° C. overnight, read-out: amount of bacterial growth inhibition (first figure)
[6] = Escherichia coli, 40 mcg/ml, 37° C. overnight, read-out: amount of bacterial growth inhibition (first figure)
[7] = Escherichia coli, 400 mcg/ml, 37° C. overnight, read-out: amount of bacterial growth inhibition (first figure)

With `CO[C@@]12[C@H](COC(N)=O)C3=C(C(=O)C(C)=C(N)C3=O)N1C[C@@H]1N[C@@H]12` [Mitomycin C, mitomycin C, reference compound] as the molecule, how does the “optical density at 660 nm (figure in parentheses)” value (shortened to “optical density at 660 nm”) (Klebsiella Pneumonia; 0.04 mcg/ml) read?
The value was 0.52.

And the “optical density at 660 nm” value (Klebsiella Pneumonia; 0.4 mcg/ml)?
The value was 0.086.

And the “optical density at 660 nm” value (Klebsiella Pneumonia; 4.0 mcg/ml)?
Its value is 0.06.

And the “optical density at 660 nm” value (Klebsiella Pneumonia; 400 mcg/ml)?
The value was 0.13.

And the inhibition at 0.04 µg/mL (Klebsiella Pneumonia; Klebsiella pneumoniae, 0.04 mcg/ml, 37° C. overnight, read-out: amount of bacterial growth inhibition (first figure))?
The inhibition at 0.04 µg/mL was 30%.

And the inhibition at 0.4 µg/mL (Klebsiella Pneumonia; Klebsiella pneumoniae, 0.4 mcg/ml, 37° C. overnight, read-out: amount of bacterial growth inhibition (first figure))?
Its inhibition at 0.4 µg/mL is 82%.

And the inhibition at 4 µg/mL (Klebsiella Pneumonia; Klebsiella pneumoniae, 4.0 mcg/ml, 37° C. overnight, read-out: amount of bacterial growth inhibition (first figure))?
The inhibition at 4 µg/mL was 87%.

What about the inhibition at 40 µg/mL (Klebsiella Pneumonia; Klebsiella pneumoniae, 40 mcg/ml, 37° C. overnight, read-out: amount of bacterial growth inhibition (first figure)) of the same molecule?
The inhibition at 40 µg/mL was 85%.

And the inhibition at 400 µg/mL (Klebsiella Pneumonia; Klebsiella pneumoniae, 400 mcg/ml, 37° C. overnight, read-out: amount of bacterial growth inhibition (first figure))?
Its inhibition at 400 µg/mL is 75%.

And the “optical density at 660 nm” value (Listeria Sp.; 0.4 mcg/ml)?
Its value is 0.13.

And the “optical density at 660 nm” value (Listeria Sp.; 4.0 mcg/ml)?
The value was 0.03.

And the “optical density at 660 nm” value (Listeria Sp.; 40 mcg/ml)?
The value was 0.018.

And the “optical density at 660 nm” value (Listeria Sp.; 400 mcg/ml)?
The value was 0.018.

What about the inhibition at 0.04 µg/mL (Listeria Sp.; Listeria, 0.04 mcg/ml, 37° C. overnight, read-out: amount of bacterial growth inhibition (first figure)) of the same molecule?
The inhibition at 0.04 µg/mL was 85%.

What about the inhibition at 0.4 µg/mL (Listeria Sp.; Listeria, 0.4 mcg/ml, 37° C. overnight, read-out: amount of bacterial growth inhibition (first figure)) of the same molecule?
The inhibition at 0.4 µg/mL was 95%.

What about the inhibition at 4 µg/mL (Listeria Sp.; Listeria, 4.0 mcg/ml, 37° C. overnight, read-out: amount of bacterial growth inhibition (first figure)) of the same molecule?
Its inhibition at 4 µg/mL is 93%.

What about the inhibition at 40 µg/mL (Listeria Sp.; Listeria, 40 mcg/ml, 37° C. overnight, read-out: amount of bacterial growth inhibition (first figure)) of the same molecule?
Its inhibition at 40 µg/mL is 96%.

What about the inhibition at 400 µg/mL (Listeria Sp.; Listeria, 400 mcg/ml, 37° C. overnight, read-out: amount of bacterial growth inhibition (first figure)) of the same molecule?
The inhibition at 400 µg/mL was 96%.

What about the “optical density at 660 nm” value (Pseudomonas Sp.; 0.04 mcg/ml) of the same molecule?
Its value is 0.11.

And the “optical density at 660 nm” value (Pseudomonas Sp.; 0.4 mcg/ml)?
Its value is 0.11.

What about the “optical density at 660 nm” value (Pseudomonas Sp.; 4.0 mcg/ml) of the same molecule?
Its value is 0.11.

And the “optical density at 660 nm” value (Pseudomonas Sp.; 40 mcg/ml)?
The value was 0.14.

What about the “optical density at 660 nm” value (Pseudomonas Sp.; 400 mcg/ml) of the same molecule?
The value was 0.15.

What about the inhibition at 0.04 µg/mL (Pseudomonas Sp.; Pseudomonas, 0.04 mcg/ml, 37° C. overnight, read-out: amount of bacterial growth inhibition (first figure)) of the same molecule?
Its inhibition at 0.04 µg/mL is 78%.

And the inhibition at 0.4 µg/mL (Pseudomonas Sp.; Pseudomonas, 0.4 mcg/ml, 37° C. overnight, read-out: amount of bacterial growth inhibition (first figure))?
Its inhibition at 0.4 µg/mL is 78%.

What about the inhibition at 4 µg/mL (Pseudomonas Sp.; Pseudomonas, 4.0 mcg/ml, 37° C. overnight, read-out: amount of bacterial growth inhibition (first figure)) of the same molecule?
Its inhibition at 4 µg/mL is 78%.

And the inhibition at 40 µg/mL (Pseudomonas Sp.; Pseudomonas, 40 mcg/ml, 37° C. overnight, read-out: amount of bacterial growth inhibition (first figure))?
The inhibition at 40 µg/mL was 72%.

And the inhibition at 400 µg/mL (Pseudomonas Sp.; Pseudomonas, 400 mcg/ml, 37° C. overnight, read-out: amount of bacterial growth inhibition (first figure))?
The inhibition at 400 µg/mL was 71%.

What about the “optical density at 660 nm” value (Staphylococcus Sp.; 0.04 mcg/ml) of the same molecule?
Its value is 0.52.

And the “optical density at 660 nm” value (Staphylococcus Sp.; 0.4 mcg/ml)?
Its value is 0.03.

And the “optical density at 660 nm” value (Staphylococcus Sp.; 4.0 mcg/ml)?
Its value is 0.03.

And the “optical density at 660 nm” value (Staphylococcus Sp.; 40 mcg/ml)?
The value was 0.041.

What about the “optical density at 660 nm” value (Staphylococcus Sp.; 400 mcg/ml) of the same molecule?
Its value is 0.046.

And the inhibition at 0.04 µg/mL (Staphylococcus Sp.; Staphylococcus, 0.04 mcg/ml, 37° C. overnight, read-out: amount of bacterial growth inhibition (first figure))?
Its inhibition at 0.04 µg/mL is 30%.

What about the inhibition at 0.4 µg/mL (Staphylococcus Sp.; Staphylococcus, 0.4 mcg/ml, 37° C. overnight, read-out: amount of bacterial growth inhibition (first figure)) of the same molecule?
The inhibition at 0.4 µg/mL was 93%.

What about the inhibition at 4 µg/mL (Staphylococcus Sp.; Staphylococcus, 4.0 mcg/ml, 37° C. overnight, read-out: amount of bacterial growth inhibition (first figure)) of the same molecule?
Its inhibition at 4 µg/mL is 93%.

What about the inhibition at 40 µg/mL (Staphylococcus Sp.; Staphylococcus, 40 mcg/ml, 37° C. overnight, read-out: amount of bacterial growth inhibition (first figure)) of the same molecule?
The inhibition at 40 µg/mL was 91%.

And the inhibition at 400 µg/mL (Staphylococcus Sp.; Staphylococcus, 400 mcg/ml, 37° C. overnight, read-out: amount of bacterial growth inhibition (first figure))?
Its inhibition at 400 µg/mL is 90%.

What about the “optical density at 660 nm” value (W3100 (E. coli); 0.04 mcg/ml) of the same molecule?
The value was 0.13.

What about the “optical density at 660 nm” value (W3100 (E. coli); 0.4 mcg/ml) of the same molecule?
Its value is 0.051.

What about the “optical density at 660 nm” value (W3100 (E. coli); 4.0 mcg/ml) of the same molecule?
The value was 0.06.

And the inhibition at 0.04 µg/mL (W3100 (E. coli); [3])?
The inhibition at 0.04 µg/mL was 74%.

And the inhibition at 0.4 µg/mL (W3100 (E. coli); [4])?
The inhibition at 0.4 µg/mL was 89%.

And the inhibition at 4 µg/mL (W3100 (E. coli); [5])?
The inhibition at 4 µg/mL was 88%.

And the inhibition at 40 µg/mL (W3100 (E. coli); [6])?
The inhibition at 40 µg/mL was 80%.

And the inhibition at 400 µg/mL (W3100 (E. coli); [7])?
The inhibition at 400 µg/mL was 80%.

And the “optical density at 660 nm” value (WP2s (E. coli); 0.04 mcg/ml)?
Its value is 0.16.

What about the inhibition at 0.04 µg/mL (WP2s (E. coli); [3]) of the same molecule?
The inhibition at 0.04 µg/mL was 70%.

And the inhibition at 0.4 µg/mL (WP2s (E. coli); [4])?
Its inhibition at 0.4 µg/mL is 86%.

What about the inhibition at 4 µg/mL (WP2s (E. coli); [5]) of the same molecule?
The inhibition at 4 µg/mL was 84%.

What about the inhibition at 40 µg/mL (WP2s (E. coli); [6]) of the same molecule?
The inhibition at 40 µg/mL was 85%.

What about the inhibition at 400 µg/mL (WP2s (E. coli); [7]) of the same molecule?
The inhibition at 400 µg/mL was 85%.

And the “% ILS” value (P388 leukemia)?
The value was 84%.

And the “Mean Survival” value (P388 leukemia)?
Its value is 21 days.

And the “mice alive on Day 30” value (Ehrlich ascites; 4 mg/kg i.p.)?
The value was 50%.

And the “% ILS” value (Ehrlich ascites; single approximate LD10 dose i.p. (M-TAG 250 mg/kg; mitomycin C 4 mg/kg), one day after implantation)?
The value was 82%.

And the “WBC nadir, % of the control” value ([1]; 4 mg/kg i.p.)?
The value was 76%.

What about the “WBC depression / myelotoxicity (in words)” value ([1]; LD10-range dose i.p., days 3, 4, 5, 6 and 10) of the same molecule?
Its value is “significantly greater than that produced by an equitoxic dose of M-TAG (P<0.01)”.

And the “decrease in WBC counts” value ([1]; LD10 dose)?
Its value is 24%.

What about the activity at 1.5 h, 1 µM (in vitro) of the same molecule?
The activity at 1.5 h, 1 µM was 30%.

And the activity at 1.5 h, 5 µM (in vitro)?
Its activity at 1.5 h, 5 µM is 21%.

And the activity at 1.5 h, 10 µM (in vitro)?
Its activity at 1.5 h, 10 µM is < 10%.

What about the “toxicity in animals (in words)” value (bone marrow) of the same molecule?
Its value is “severe bone marrow depression and gastrointestinal damage, and were delayed in onset”.

What about the “mice alive on day 20” value (B16 melanoma) of the same molecule?
Its value is 5 out of 10.

What about the “mice alive on day 10” value (B16 melanoma; all vehicle-control mice died) of the same molecule?
Its value is “All”.

What about the “approximate LD10 dose (molar)” value ([2]; single i.p. dose) of the same molecule?
Its value is ~12 µmol/kg.

And the LD10 dose ([2]; single i.p. dose toxic to 10% of normal mice)?
Its LD10 dose is ~4 mg/kg.
